Test results taken from patent US20140357620A1, “METHOD FOR ADMINISTRATION OF A GAMMA SECRETASE INHIBITOR” (Hoffmann-La Roche Inc., priority 2011, published 2014).
Read-outs that look alike come from different tables or passages of the source.

Tests used:
[1] = set-up: species or system patients; conditions: human, in vivo
Method: If deemed safe, then dose escalation to dose intensities at and above that given in the 3-4 schedule at 270 mg/day will be performed. For safety reasons, the first cohorts of patients enrolled in schedules C, D, E and F will be treated with lower doses (dose level 1: 14% to 37% of dose intensity of 3-4 schedule at 270 mg). Then in the subsequent cohorts, the dose will be escalated by 50%-100%.

[2] = ongoing first phase 1 trial of Compound A (pharmacokinetics); set-up: species or system patients; conditions: human, in vivo, oral
From the text: This schedule (C) includes 11 dosing days in a 3-week cycle.

- highest safe dose tested so far [1]: 270 mg/day
- half-life ([2]; mean, read-out: mean terminal half-life (converted)): 42.2 h
- half-life ([2]; range, read-out: terminal half-life (range)): 10 to 93 h
Structure (SMILES): CC(C)(C(=O)NCC(F)(F)C(F)(F)F)C(=O)N[C@@H]1C(=O)Nc2ccccc2-c2ccccc21 [Compound A, 2,2-dimethyl-N-((S)-6-oxo-6,7-dihydro-5H-dibenzo[b,d]azepin-7-yl)-N′-(2,2,3,3,3-pentafluoro-propyl)-malonamide]
